From US12521438B2, “SMARCA degraders and uses thereof” (Kymera Therapeutics, Inc., priority 2019, dated 2026)

Assays:
SMARCA2 = SMARCA2 (Homo sapiens, UniProt P51531); assay: MSD SMARCA2 degradation in A549 cell line; type: cell-based; set-up: endogenous in cells; host or cells: A549; conditions: A549 cells, 24 hours; for DC50: read-out: SMARCA2 MSD A549 degradation 24h: Average external-Abs DC50
Description: Example 9. MSD SMARCA2 Degradation in A549 Cell Line
Cells were seeded into 96-well plates (A549 cells: 2×10^4 cells/well/100 ul media) abd incubated overnight. The next day, 200 nl compound were added into the intermediate plate with Echo (Labcyte 550) from source plate containing a 3-fold serial dilution from top concentration of 1 mM. The culture medium was changed with 80 ul of fresh medium and 80 ul of 2× compound solution was added into the well to make a final concentration of 1000 nM, 333.3 nM, 111.1 nM, 37.04 nM, 12.35 nM, 4.115 nM, 1.372 nM, 0.457 nM, 0.152 nM and 0 nM (DMSO). The wells were mixed and then incubated for 24 hours. The media was aspirated from the cultures and 60 ul pre-chilled PIPA lysis buffer (Boston BioProducts BP-115D) with protease/phosphatase inhibitor (Roche 05892791001/Roche 04906837001) was added into the well to lyze the cells for 20 minutes at 4° C. The MSD plate (L15XA) was coated with 40 ul cell lysate and incubated at 4° C. overnight. The next day, the plate was washed three times with TBST (CST #9997S), 150 ul/well. The MSD plates was blocked with 150 ul blocking buffer per well and shaked for 1 hr at RT, 600 rpm. The blocking buffer was 3% Blocker A (MSD, R93BA-4) in TBST. The MSD plate was washed three times with 150 ul/well of TBST and 25 ul/well of detection antibody (Rabbit anti-SMARCA2/BRM antibody, 100 μg/ml, ab223735) was added at final concentration of 1 ug/ml diluted in 1% Blocking buffer and shaken for 1 hour at RT, 600 rpm. The MSD plate was washed three times with 150 ul/well of TBST and 25 ul/well of SULFO-TAG anti-rabbit antibody (MSD, R32AB-1) was added at final concentration of 1 ug/ml diluted in 1% Blocking buffer and shaken for 1 hour at RT, 600 rpm. The MSD plate was washed three times with 150 ul/well of TBST and 150 ul/well of 2×MSD reading buffer diluted from 4× (MSD, R92TC-2) with water was added. Lastly, the MSD instrument was read.

SMARCA4 = molecular target: T1, SMARCA4 (Homo sapiens, UniProt P51532); assay: SMARCA4 Western blot MV4-11 degradation; type: cell-based; conditions: MV4-11 cells, 24 hours; for Dmax: read-out: SMARCA4 WB MV411 degradation 24h: Average Dmax %; for DC50: read-out: SMARCA4 WB MV411 degradation 24h: Average external-Abs DC50
T1 construct: endogenous in cells; host or cells: MV4-11
Description: Example 10. SMARCA2 and SMARCA 4 Western Blot MV4-11 Degradation
Cells were seeded into 6-well plates (MV4-11: 4×10^6 cells/well/1 ml) and 1 ml of 2× compound solution was added into the well to make the final concentration and the plates were mixed well and incubated for 24 hours (No cytotoxicity was observed). The cell were collected with media and spun at 3000 rpm for 5 minutes. The supernatant was aspirated and the well and the cells were washed with cold PBS once and combined for centrifugation again; the supernatant aspirated again. 200 ul pre-chilled RIPAlysis buffer (Boston BioProducts BP-115D) with protease/phosphatase inhibitor (Roche 05892791001/Roche 04906837001) was directly added into the tube to lyze the cells for 20 minutes on ice. The cell lysate were collected into EP tubes and spun at 13000 rpm for 20 minutes and 72 ul supernatant was transferred to a fresh EP tube containing 18 ul of 5× loading buffer (Beyotime Bio P0015) to make the loading samples. The samples were heated to 100° C. for 10 minutes and cooled to RT and microcentrifuged. 20 ul of samples were loaded onto SDS-PAGE gel (Novex, WG1402BOX) and the gel was run at 80 V for 20 minutes and 120 V for 1.5 hours. The samples were electrotransfer to a NC membrane using wet-transfer method with 250 mA for 2.5 hours. The membrane was blocked with LICOR blocking buffer (LI-COR, 927-50000) for 1 hour. The membrane was washed three times with TBST (CST #9997S), 5 minutes each. Incubation was performed with primary antibody prepared in blocking buffer with 0.1% Tween-20 (Solarbio, P8220) at 4° C. overnight (Anti-SMARCA2/BRM antibody (ab15597) 1:500; Anti-BRG1 antibody [EPR3912] (ab108318) 1:1000; Rabbit anti-Baf180 antibody [EPR15860] (Abcam,ab196022) 1:1000; mouse anti-beta-Actin (8H10D10) (CST #3700) 1:10000). The membrane was washed three times with TBST, 5 minutes each. Incubation with secondary antibody was performed for 1 hour at RT (anti-rabbit IgG (Licor, 926-32211) 1:5000; anti-mouse IgG (LI-COR, 926-68070) 1:5000). The membrane was washed three times with 5 minutes each and lastly the LiCOR was read.

Chain of SMARCA2 (P51531 whole entry): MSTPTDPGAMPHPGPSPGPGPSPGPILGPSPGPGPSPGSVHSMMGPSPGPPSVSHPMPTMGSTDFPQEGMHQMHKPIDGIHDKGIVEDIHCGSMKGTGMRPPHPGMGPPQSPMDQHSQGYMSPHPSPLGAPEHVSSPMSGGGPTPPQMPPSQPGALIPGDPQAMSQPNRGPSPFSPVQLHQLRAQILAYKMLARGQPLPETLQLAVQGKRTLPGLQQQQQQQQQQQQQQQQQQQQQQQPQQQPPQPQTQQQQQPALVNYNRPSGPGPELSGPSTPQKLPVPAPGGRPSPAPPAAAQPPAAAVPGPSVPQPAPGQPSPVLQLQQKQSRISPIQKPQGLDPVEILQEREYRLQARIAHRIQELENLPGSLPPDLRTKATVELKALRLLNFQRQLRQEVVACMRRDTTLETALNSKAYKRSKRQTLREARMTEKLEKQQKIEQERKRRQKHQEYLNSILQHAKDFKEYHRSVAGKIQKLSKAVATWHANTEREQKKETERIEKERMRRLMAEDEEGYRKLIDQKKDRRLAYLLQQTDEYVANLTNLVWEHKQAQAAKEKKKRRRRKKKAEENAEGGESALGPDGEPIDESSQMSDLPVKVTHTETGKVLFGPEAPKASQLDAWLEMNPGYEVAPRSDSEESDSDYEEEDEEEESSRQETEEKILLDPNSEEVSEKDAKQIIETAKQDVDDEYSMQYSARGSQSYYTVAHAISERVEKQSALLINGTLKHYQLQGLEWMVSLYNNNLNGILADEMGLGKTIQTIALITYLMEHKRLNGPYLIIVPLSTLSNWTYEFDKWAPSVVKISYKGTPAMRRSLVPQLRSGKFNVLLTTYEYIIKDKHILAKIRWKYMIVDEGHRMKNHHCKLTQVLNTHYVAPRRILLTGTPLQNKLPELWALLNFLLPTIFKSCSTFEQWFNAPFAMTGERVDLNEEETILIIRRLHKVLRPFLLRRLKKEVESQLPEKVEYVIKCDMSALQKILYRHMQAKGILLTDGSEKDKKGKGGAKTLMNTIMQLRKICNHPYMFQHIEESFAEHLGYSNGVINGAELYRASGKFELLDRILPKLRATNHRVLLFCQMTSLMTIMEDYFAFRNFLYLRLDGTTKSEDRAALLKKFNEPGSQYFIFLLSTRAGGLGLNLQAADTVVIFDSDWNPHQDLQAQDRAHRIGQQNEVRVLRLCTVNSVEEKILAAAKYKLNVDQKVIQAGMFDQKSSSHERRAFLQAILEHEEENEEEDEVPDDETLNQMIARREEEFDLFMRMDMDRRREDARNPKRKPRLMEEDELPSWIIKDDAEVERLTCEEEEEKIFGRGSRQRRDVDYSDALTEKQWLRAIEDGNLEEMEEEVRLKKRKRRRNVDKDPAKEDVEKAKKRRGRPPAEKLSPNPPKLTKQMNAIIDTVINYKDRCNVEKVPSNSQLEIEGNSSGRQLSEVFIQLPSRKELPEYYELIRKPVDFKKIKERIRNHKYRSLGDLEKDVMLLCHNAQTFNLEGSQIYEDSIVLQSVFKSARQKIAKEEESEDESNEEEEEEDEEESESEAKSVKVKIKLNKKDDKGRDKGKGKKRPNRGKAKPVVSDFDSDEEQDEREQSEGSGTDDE
T1 sequence (P51532 whole entry): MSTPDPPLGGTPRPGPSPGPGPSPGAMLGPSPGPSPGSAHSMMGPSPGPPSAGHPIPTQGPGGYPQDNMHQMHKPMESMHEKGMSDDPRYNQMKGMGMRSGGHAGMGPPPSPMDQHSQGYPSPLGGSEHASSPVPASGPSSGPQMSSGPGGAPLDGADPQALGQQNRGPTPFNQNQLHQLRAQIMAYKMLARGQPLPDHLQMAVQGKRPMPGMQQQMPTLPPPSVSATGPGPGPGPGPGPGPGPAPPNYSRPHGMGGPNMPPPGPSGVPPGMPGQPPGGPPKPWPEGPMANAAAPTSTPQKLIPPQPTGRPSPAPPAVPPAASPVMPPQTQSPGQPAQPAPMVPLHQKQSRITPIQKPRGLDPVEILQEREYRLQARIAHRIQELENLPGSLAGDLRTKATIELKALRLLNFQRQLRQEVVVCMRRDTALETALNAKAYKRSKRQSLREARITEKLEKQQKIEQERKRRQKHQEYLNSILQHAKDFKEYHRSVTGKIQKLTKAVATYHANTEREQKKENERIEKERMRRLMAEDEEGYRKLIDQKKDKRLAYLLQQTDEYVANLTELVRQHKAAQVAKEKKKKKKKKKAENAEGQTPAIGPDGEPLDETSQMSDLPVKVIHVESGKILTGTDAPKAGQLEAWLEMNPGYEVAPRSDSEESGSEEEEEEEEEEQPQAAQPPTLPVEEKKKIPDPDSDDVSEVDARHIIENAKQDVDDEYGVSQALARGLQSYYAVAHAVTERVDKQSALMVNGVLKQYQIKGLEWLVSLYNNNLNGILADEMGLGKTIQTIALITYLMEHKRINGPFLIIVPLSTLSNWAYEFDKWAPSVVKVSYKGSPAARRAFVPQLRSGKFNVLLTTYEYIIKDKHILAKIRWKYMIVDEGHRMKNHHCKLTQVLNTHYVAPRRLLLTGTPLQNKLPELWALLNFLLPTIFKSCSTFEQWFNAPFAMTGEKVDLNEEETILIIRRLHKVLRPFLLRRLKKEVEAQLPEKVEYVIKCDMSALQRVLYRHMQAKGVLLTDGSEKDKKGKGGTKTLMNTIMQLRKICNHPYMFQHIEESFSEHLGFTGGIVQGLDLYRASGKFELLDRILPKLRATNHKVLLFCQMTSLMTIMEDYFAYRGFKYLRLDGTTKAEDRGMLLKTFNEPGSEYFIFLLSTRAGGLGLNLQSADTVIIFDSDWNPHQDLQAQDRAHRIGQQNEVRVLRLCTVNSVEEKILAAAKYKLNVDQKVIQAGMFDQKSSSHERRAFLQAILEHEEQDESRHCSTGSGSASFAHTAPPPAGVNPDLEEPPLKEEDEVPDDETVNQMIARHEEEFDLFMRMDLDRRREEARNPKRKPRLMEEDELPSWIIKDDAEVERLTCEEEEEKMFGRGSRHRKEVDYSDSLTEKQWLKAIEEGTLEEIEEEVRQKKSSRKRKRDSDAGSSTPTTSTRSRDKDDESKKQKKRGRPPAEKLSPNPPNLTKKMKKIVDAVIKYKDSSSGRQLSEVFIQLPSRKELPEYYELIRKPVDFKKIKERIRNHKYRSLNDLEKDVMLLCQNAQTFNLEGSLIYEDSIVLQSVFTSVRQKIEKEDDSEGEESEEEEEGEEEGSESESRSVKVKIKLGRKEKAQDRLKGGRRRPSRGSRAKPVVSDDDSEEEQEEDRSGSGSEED

| SMILES | Dmax (SMARCA2) | DC50 (SMARCA2) | Dmax (SMARCA4) | DC50 (SMARCA4) |
| --- | --- | --- | --- | --- |
| CN(CCCc1cnc(N2CCC(c3c[nH]c4nnc(-c5ccccc5O)cc34)CC2)nc1)CCCc1ccc2c(c1)n(C)c(=O)n2C1CCC(=O)NC1=O (stereo not drawn) [I-2] | < 50% | > 1000 nM |  |  |
| Cc1ncsc1-c1ccc(CNC(=O)[C@@H]2C[C@@H](O)CN2C(=O)[C@@H](NC(=O)C2(F)CC2)C(C)(C)C)c(OCCN2CCC(c3c[nH]c4nnc(-c5ccccc5O)cc34)CC2)c1 [I-47, (2S,4R)-1-((S)-2-(1-fluorocyclopropanecarboxamido)-3,3-dimethylbutanoyl)-4-hydroxy-N-(2-(2-(4-(3-(2-hydroxyphenyl)-7H-pyrrolo[2,3-c]pyridazin-5-yl)piperidin-1-yl)ethoxy)-4-(4-methylthiazol-5-yl)benzyl)pyrrolidine-2-carboxamide] | < 50% | > 1000 nM | 70 to 90% | > 1000 nM |
| Cc1ncsc1-c1ccc(CNC(=O)[C@@H]2C[C@@H](O)CN2C(=O)[C@@H](NC(=O)CN(C)Cc2cnc(N3CCC(c4c[nH]c5nnc(-c6ccccc6O)cc45)CC3)nc2)C(C)(C)C)cc1 [I-50] | < 50% | > 1000 nM | < 50% | > 1000 nM |
| Cc1ncsc1-c1ccc(CNC(=O)[C@@H]2C[C@@H](O)CN2C(=O)[C@@H](NC(=O)CCCCCN(C)Cc2cnc(N3CCC(c4c[nH]c5nnc(-c6ccccc6O)cc45)CC3)nc2)C(C)(C)C)cc1 [I-52, (2S,4R)-4-hydroxy-1-((S)-2-(6-(((2-(4-(3-(2-hydroxyphenyl)-7H-pyrrolo[2,3-c]pyridazin-5-yl)piperidin-1-yl)pyrimidin-5-yl)methyl)(methyl)amino)hexanamido)-3,3-dimethylbutanoyl)-N-(4-(4-methylthiazol-5-yl)benzyl)pyrrolidine-2-carboxamide] | < 50% | > 1000 nM | 50 to 70% | > 1000 nM |
| Cc1ncsc1-c1ccc(CNC(=O)[C@@H]2C[C@@H](O)CN2C(=O)[C@@H](NC(=O)CN2CCC(c3cnc(N4CCC(c5c[nH]c6nnc(-c7ccccc7O)cc56)CC4)nc3)CC2)C(C)(C)C)cc1 [I-53] | 70 to 90% | 501 to 1000 nM | 70 to 90% | < 100 nM |
| Cc1ncsc1-c1ccc(CNC(=O)[C@@H]2C[C@@H](O)CN2C(=O)[C@@H](NC(=O)C2(F)CC2)C(C)(C)C)c(OCCCCCCN2CCC(c3c[nH]c4nnc(-c5ccccc5O)cc34)CC2)c1 [I-48] | < 50% | > 1000 nM | < 50% | 501 to 1000 nM |
| Cc1ncsc1-c1ccc(CNC(=O)[C@@H]2C[C@@H](O)CN2C(=O)[C@@H](NC(=O)[C@H]2CC[C@@H](c3cnc(N4CCC(c5c[nH]c6nnc(-c7ccccc7O)cc56)CC4)nc3)CC2)C(C)(C)C)cc1 [I-45, (2S,4R)-4-hydroxy-1-((S)-2-((1s,4R)-4-(2-(4-(3-(2-hydroxyphenyl)-7H-pyrrolo[2,3-c]pyridazin-5-yl)piperidin-1-yl)pyrimidin-5-yl)cyclohexanecarboxamido)-3,3-dimethylbutanoyl)-N-(4-(4-methylthiazol-5-yl)benzyl)pyrrolidine-2-carboxamide] | 70 to 90% | 501 to 1000 nM | > 90% | < 100 nM |
| Cc1ncsc1-c1ccc(CNC(=O)[C@@H]2C[C@@H](O)CN2C(=O)[C@@H](NC(=O)CCCN(C)Cc2cnc(N3CCC(c4c[nH]c5nnc(-c6ccccc6O)cc45)CC3)nc2)C(C)(C)C)cc1 [I-51] | < 50% | > 1000 nM | < 50% | > 1000 nM |
| Cc1ncsc1-c1ccc(CNC(=O)[C@@H]2C[C@@H](O)CN2C(=O)[C@@H](NC(=O)C2(F)CC2)C(C)(C)C)c(OCCCCCCCCN2CCC(c3c[nH]c4nnc(-c5ccccc5O)cc34)CC2)c1 [I-49] | < 50% | > 1000 nM | 70 to 90% | > 1000 nM |
| CN(CC#Cc1cnc(N2CCC(c3c[nH]c4nnc(-c5ccccc5O)cc34)CC2)nc1)CCCc1ccc2c(c1)n(C)c(=O)n2C1CCC(=O)NC1=O (stereo not drawn) [I-3] | < 50% | > 1000 nM |  |  |
